Data reported in patent US20240360137A1 (Novartis AG, priority 2023, published 2024).

Legend:
Experiment in all cases: CDKi biochemical assay (TR-FRET, phosphorylation of S780 on RB1 peptide)
CDK2/CyclinE1 = CDK2/CyclinE1 (Homo sapiens, UniProt P24941); conditions: CDK2/CyclinE1 100 pM, 1 mM ATP, 60 min at 25° C.
Description: (§1) Biochemical assays measured the inhibitory effects of compounds in this disclosure on the enzymatic activity of CDK enzyme in complex with Cyclin protein partner by phosphorylation of Ser-780 (S780) on retinoblastoma protein peptide (RB1) in the presence of 1 mM adenosime-5-triphosphate (ATP) and varying concentration of test compound in 20 mM 2-[4-(2-hydroxyethyl)paperazin-1-yl] ethanesulfonic acid (HEPES), pH 7.5, 10 mM MgCl2, 1 mM dithiothreitol (DTT), 0.01% bovine serum albumin (BSA), 0.005% Tween 20. Total Reaction volume of 10 μL proceeded for 60 minutes at room temperature (25° C.) and were quenched with 5 μL of 200 mM 2′,2″,2′″-(Ethane-1,2-diyldinitrilo)tetraacetic acid (EDTA) pH 8.0 before addition of 5 μL detection solution containing 100 nM fluorophore conjugate streptavidin allophycocyanin (SA-APC), 2 nM Europium labelled Anti-p-RB(S780)-K (Perkin Elmer, 64CUSKAY), 50 mM HEPES, pH 7.5, 400 mM potassium fluoride (KF), 0.1% BSA, and 0.01% Tween-20. Phosphorylation of S780 on RB1 peptide (His-MBP-RB1[773-924]-SEQ ID NO. 9) was detected by TR-FRET after 3 hour incubation with detection solution. Percent phosphorylation activity was plotted against log concentration of compound to generate an apparent ICSO. The following CDK enzyme in complex with different cyclin proteins and protein peptide substrate were used in these assays: • CDK1/CyclinB1, Avi-tag, 10 pM used in the assay • CDK2/CyclinE1, Avi-tag, 100 pM used in the assay • CDK4/cyclinD1, Avi-tag, 20 pM used in the assay • CDK6/cyclinD3, Avi-tag, 10 pM used in the assay • His-MBP-RB1[773-924], Avi-tag, 200 nM used in the assay
(§2) The avi-tag is a C-terminal fusion on the CDK1/2/4/6 sequence in each of these two-protein complexes. The known avi-tag sequence, […] (SEQ ID NO. 10), is a substrate for E. coli biotin ligase BirA, which covalently attaches a biotin molecule to the e-amino group of the lysine in that sequence. The avi-tag is attached with an 8 amino-acid linker sequence GGSGGGGS (SEQ ID NO. 11), resulting in the full C-terminal fusion
(§3) Recombinant proteins were generated as N-terminal fusions of 9× His tag—E. coli Maltose Binding Protein (MBP), with or without a C-terminal Avi-tag.^1 CDK2 and His-MBP-RB1[773-924]-c-avi were expressed in E. coli while the remainder were expressed in Sf21 insect cells. Genes were synthesized commercially (GeneArt and Twist Bioscience) using codon frequencies appropriate to the respective organisms and proprietary codon optimization strategies, and inserted into pET 24 (E. coli) or pDEST8 (insect) vectors already containing the 9× His-MBP tag using standard methods of PCR and Gibson Assembly.^2 E. coli expression was performed by auto-induction overnight at 18 or 21 C. For insect cell expression, bacmids and viruses were created,^3 then used to synchronously infect Sf21 insect cells with harvest at 40-48 hrs., per standard protocols.^4
(§4) For CDK2/Cyclin E and CDK1/Cyclin B, the CDK and Cyclin proteins were expressed separately, lysed by sonication and clarified by centrifugation. The fusion proteins were each separately purified by immobilized metal ion affinity chromatography (IMAC) (5 mL HisTrap, Cytiva) and Superdex 200 26/60 (Cytiva) size-exclusion and complexed in vitro (1-3 hrs incubation at room temperature) prior to tag cleavage by recombinant his-tagged Tobacco Etch Virus protease or his-tagged Human rhinovirus 3C protease, as appropriate. The cleaved complex is further purified by Superdex 75 26/60 (Cytiva) size-exclusion followed by reverse-IMAC, in which the complex is in the column flow-through and residual His-MBP and his-tagged proteases are retained. The final complex is concentrated as desired by centrifugal concentration (Amicon Ultra 10,000 Da MWCO 15 mL concentrators, Millipore).
For E. coli expressed CDK2 and His-MBP-RB1[773-924]-c-avi, the proteins were biotinylated in vitro after the first IMAC step.^1
(§5) For the is-MBP-RB1[773-924]-c-avi, the protein was lysed by sonication and clarified by centrifugation. […]

CDK1/CyclinB1 = CDK1/CyclinB1 (Homo sapiens, UniProt P06493); conditions: CDK1/CyclinB1 10 pM, 1 mM ATP, 60 min at 25° C.
Description: as §1, §2, §3, §4, §5

CDK4/cyclinD1 = CDK4/cyclinD1 (Homo sapiens, UniProt P11802); conditions: CDK4/cyclinD1 20 pM, 1 mM ATP, 60 min at 25° C.
Description: as §1, §2, §3
(§6) For CDK4/Cyclin D1 and CDK6/Cyclin D3, the complexes were expressed by simultaneous co-infection of insect cells by three separate viruses including one expressing untagged E. coli BirA. The expression media is supplemented with 50 uM d-biotin. The resulting protein complexes purified similarly. After lysis and clarification, the complex is purified by IMAC, Superdex 200 26/60 size exclusion, tag cleavage by human rhinovirus 3C protease, Superdex 75 26/60 size exclusion and reverse IMAC. BirA is typically not retained on the first IMAC, and excess CDK or Cyclin monomer is separated on the Superdex 200 size exclusion. Cleaved His-MBP and remaining monomer are removed by the Superdex 75 size exclusion and the reverse IMAC step. Final concentration by centrifugal concentrators as described above.
as §5

CDK6/cyclinD3 = CDK6/cyclinD3 (Homo sapiens, UniProt Q00534); conditions: CDK6/cyclinD3 10 pM, 1 mM ATP, 60 min at 25° C.
Description: as §1, §2, §3, §6, §5

SMILES	IC50 (CDK2/CyclinE1)	IC50 (CDK1/CyclinB1)	IC50 (CDK4/cyclinD1)	IC50 (CDK6/cyclinD3)
O=C1N([C@@H]2CCC[C@@H](O)C2)c2nc(Nc3c[nH]nc3C3CC3)ncc2C12CC2 [Example 14, 2′-((3-cyclopropyl-1H-pyrazol-4-yl)amino)-7′-((1R,3R)-3-hydroxycyclohexyl)spiro[cyclopropane-1,5′-pyrrolo[2,3-d]pyrimidin]-6′(7′H)-one]	0.03 µM	1.55 µM	≥ 10 µM	≥ 10 µM
O=C1N([C@@H]2CCC[C@@H](O)C2)c2nc(Nc3c[nH]nc3C(F)(F)F)ncc2C12CC2 [Example 15, 7′-((1R,3R)-3-hydroxycyclohexyl)-2′-((3-(trifluoromethyl)-1H-pyrazol-4-yl)amino)spiro[cyclopropane-1,5′-pyrrolo[2,3-d]pyrimidin]-6′(7′H)-one]	0.039 µM	3.72 µM	≥ 10 µM	≥ 10 µM
COCCn1cc(Nc2ncc3c(n2)N([C@@H]2CCC[C@@H](O)C2)C(=O)C32CC2)cn1 [Example 16, 7′-((1R,3R)-3-hydroxycyclohexyl)-2′-((1-(2-methoxyethyl)-1H-pyrazol-4-yl)amino)spiro[cyclopropane-1,5′-pyrrolo[2,3-d]pyrimidin]-6′(7′H)-one]	0.049 µM	2.36 µM	1.23 µM	1.8 µM
Cc1n[nH]cc1Nc1ncc2c(n1)N([C@@H]1CCCC[C@@H](O)C1)C(=O)C21CC1 [Example 17, 7′-(3-hydroxycycloheptyl)-2′-((3-methyl-1H-pyrazol-4-yl)amino)spiro[cyclopropane-1,5′-pyrrolo[2,3-d]pyrimidin]-6′(7′H)-one]	0.041 µM	4.49 µM	≥ 10 µM	≥ 10 µM
O=C1N([C@@H]2CCCC[C@@H](O)C2)c2nc(Nc3c[nH]nc3Cl)ncc2C12CC2 [Example 19, 2′-((3-chloro-1H-pyrazol-4-yl)amino)-7′-((1R,3R)-3-hydroxycycloheptyl)spiro[cyclopropane-1,5′-pyrrolo[2,3-d]pyrimidin]-6′(7′H)-one]	0.044 µM	4.12 µM	7.58 µM	9.16 µM
N#Cc1n[nH]cc1Nc1ncc2c(n1)N([C@@H]1CCC[C@@H](O)C1)C(=O)C21CC1 [Example 20, 4-((7′-((1R,3R)-3-hydroxycyclohexyl)-6′-oxo-6′,7′-dihydrospiro[cyclopropane-1,5′-pyrrolo[2,3-d]pyrimidin]-2′-yl)amino)-1H-pyrazole-3-carbonitrile]	0.008 µM	0.66 µM	2.16 µM	2.66 µM

Other lines, results leading:

IC50 (CDK2/CyclinE1)	IC50 (CDK1/CyclinB1)	IC50 (CDK4/cyclinD1)	IC50 (CDK6/cyclinD3)	SMILES
0.017 µM	2.5 µM	2.26 µM	4.46 µM	COCc1n[nH]cc1Nc1ncc2c(n1)N([C@@H]1CCC[C@@H](O)C1)C(=O)C21CC1 [Example 21, 7′-((1R,3R)-3-hydroxycyclohexyl)-2′-((3-(methoxymethyl)-1H-pyrazol-4-yl)amino)spiro[cyclopropane-1,5′-pyrrolo[2,3-d]pyrimidin]-6′(7′H)-one]
0.034 µM	2.96 µM	5.26 µM	8.12 µM	COCCOc1n[nH]cc1Nc1ncc2c(n1)N([C@@H]1CCC[C@@H](O)C1)C(=O)C21CC1 [Example 22, 7′-((1R,3R)-3-hydroxycyclohexyl)-2′-((3-(2-methoxyethoxy)-1H-pyrazol-4-yl)amino)spiro[cyclopropane-1,5′-pyrrolo[2,3-d]pyrimidin]-6′(7′H)-one]
0.015 µM	2.43 µM	9.45 µM	≥ 10 µM	CCOc1n[nH]cc1Nc1ncc2c(n1)N([C@@H]1CCC[C@@H](O)C1)C(=O)C21CC1 [Example 23, 2′-((3-ethoxy-1H-pyrazol-4-yl)amino)-7′-((1R,3R)-3-hydroxycyclohexyl)spiro[cyclopropane-1,5′-pyrrolo[2,3-d]pyrimidin]-6′(7′H)-one]
0.012 µM	2.02 µM	3.91 µM	≥ 10 µM	O=C1N([C@@H]2CCC[C@@H](O)C2)c2nc(Nc3c[nH]nc3O[C@@H]3COC[C@H]3F)ncc2C12CC2 [Example 24, 2′-((3-(((3R,4R)-4-fluorotetrahydrofuran-3-yl)oxy)-1H-pyrazol-4-yl)amino)-7′-((1R,3R)-3-hydroxycyclohexyl)spiro[cyclopropane-1,5′-pyrrolo[2,3-d]pyrimidin]-6′(7′H)-one]
0.024 µM	2.44 µM	≥ 10 µM	≥ 10 µM	O=C1N([C@@H]2CCC[C@@H](O)C2)c2nc(Nc3c[nH]nc3O[C@H]3COC[C@@H]3F)ncc2C12CC2 [Example 25, 2′-((3-(((3S,4S)-4-fluorotetrahydrofuran-3-yl)oxy)-1H-pyrazol-4-yl)amino)-7′-((1R,3R)-3-hydroxycyclohexyl)spiro[cyclopropane-1,5′-pyrrolo[2,3-d]pyrimidin]-6′(7′H)-one]
0.059 µM	≥ 10 µM	5.35 µM	8.5 µM	O=C1N([C@@H]2CCC[C@@H](O)C2)c2nc(Nc3c[nH]nc3O[C@@H]3COC[C@@H]3F)ncc2C12CC2 [Example 26, 2′-((3-(((3R,4S)-4-fluorotetrahydrofuran-3-yl)oxy)-1H-pyrazol-4-yl)amino)-7′-((1R,3R)-3-hydroxycyclohexyl)spiro[cyclopropane-1,5′-pyrrolo[2,3-d]pyrimidin]-6′(7′H)-one]
0.011 µM	1.92 µM	1.28 µM	3.18 µM	O=C1N([C@@H]2CCC[C@@H](O)C2)c2nc(Nc3c[nH]nc3O[C@H]3COC[C@H]3F)ncc2C12CC2 [Example 27, 2′-((3-(((3S,4R)-4-fluorotetrahydrofuran-3-yl)oxy)-1H-pyrazol-4-yl)amino)-7′-((1R,3R)-3-hydroxycyclohexyl)spiro[cyclopropane-1,5′-pyrrolo[2,3-d]pyrimidin]-6′(7′H)-one]
0.011 µM	1.18 µM	2.12 µM	2.54 µM	O=C1N([C@@H]2CCC[C@@H](O)C2)c2nc(Nc3c[nH]nc3-c3cnn4ccccc34)ncc2C12CC2 [Example 28, 7′-((1R,3R)-3-hydroxycyclohexyl)-2′-((3-(pyrazolo[1,5-a]pyridin-3-yl)-1H-pyrazol-4-yl)amino)spiro[cyclopropane-1,5′-pyrrolo[2,3-d]pyrimidin]-6′(7′H)-one]
